Test [1] deals with Akt phosphorylation. The test is described as follows: Western blot of phosphorylated Akt and total Akt in RD cells. The format is cell-based. The protocol:
Western blot analysis was performed as described previously ([26]). In brief, the indicated cell samples were lysed in RIPA buffer supplemented with protease inhibitors (Thermo Fisher Scientific, 78430). The cell lysates were then separated in 10% SDS-PAGE and transferred to a 0.45-µm nitrocellulose membrane. After blocking, the membrane was incubated with an against VP1 antibody (GeneTex, GTX132339), VEGFR1 antibody (Abcam, ab32152), VEGFR2 antibody (Abcam, ab134191), phosphorylated VEGFR2 antibody (Tyr951) (CST 4991), VEGFR3 antibody (Beyotime, AF6918), Akt antibody (CST 4685), phosphorylated Akt antibody (CST 4060), or GAPDH antibody (GeneTex, GTX627408) diluted 1:5,000 in primary antibody dilution buffer overnight at 4°C, followed by corresponding secondary staining. The blots were visualized by western horseradish peroxidase substrate and imaged with Gel Doc XR+.
Fig. S8. Viral reduction in RD cells with Akt inhibitor treatment. […] Significant inhibition of EV-A71 infection was found for both cell lysate (left) and supernatant (middle) using RT-qPCR analysis. The results represent the viral load in the cells treated with MK-2206 relative to that in DMSO-treated cells. Viral titer was also determined for inhibitor-treated samples in TCID50 assays (right). […] (C) The levels of VP1, phosphorylated Akt and total Akt protein were measured for samples treated with DMSO or MK-2206 using western blotting.
Fig. S9. […] (A) RD cells were infected with EV-A71 at an MOI of 1, and cell lysates were collected at the indicated times. Western blotting assays were then performed to assess the levels of phosphorylated Akt and total Akt. (B)The plasmids pVEGFR2 or pEmpty vector were transfected into RD cells. At the indicated times post-transfection, cells were harvested to detect the expression levels of phosphorylated Akt and total Akt by western blotting. […] Western blotting assays were then performed to assess the levels of phosphorylated Akt and total Akt. […] At 1 hpi, cells were harvested to detect the expression levels of phosphorylated Akt and total Akt by western blotting. […]
On the technique in general: A western blot detects proteins with antibodies after separation by electrophoresis.

Test [2] concerns VEGFR1. Also on record: method as in PMID 17620431. The conditions noted are these: cited from earlier work.
In test [3] the test system is EV-A71. The test is described as follows: Cytopathic effect (CPE) inhibition assay in RD cells. The format is cell-based, Human enterovirus A71. The conditions noted are these: Enterovirus A, EVA71, RD, read-out: EC50, compound concentration required to achieve 50% protection from virus-induced cytopathogenicity. On the technique in general: Cytopathic effects are the visible damage that an infection or toxin causes in cultured cells.

The subject of test [4] is EV-D70. Put plainly: Antiviral activity against EV-D70 in RD cells (RT-qPCR, TCID50). The class given is cell-based, enterovirus D70. The following applies: 10 µM, 0.1 MOI, 24 h. The method, then:
(§1) Detection of cellular mRNA expression and viral load was performed as described previously ([24]). In brief, the infected or mock-infected cells were lysed and applied to total RNA extraction by using the MiniBEST Universal RNA Extraction Kit (TaKaRa, Code No.9767). Viral RNA in the supernatant was extracted with the MiniBEST Viral RNA Extraction Kit (TaKaRa, Code No.9766). Reverse transcription was performed using the PrimeScript RT reagent Kit (TaKaRa, Code No.PR037A) with an oligo (dT) primer. The resultant cDNAs were used for qPCR assay with the Light Cycler 480 SYBR Green I Master Mix (Roche) to measure the mRNA expression level of cellular genes or viral load in supernatants. The relative viral gene copy was determined by RT-qPCR, using GAPDH as an internal reference.
(§2) The viral titer in the indicated samples was determined by TCID50 assay as described previously ([25]). Briefly, serially diluted samples from 10^−1 to 10^−8 in DMEM were inoculated to RD cells, BGMK cells, or MRC-5 in 96‐well plates. The cells were then incubated for 2 to 3 days at 37°C. TCID50 was calculated by counting the wells with cytopathic effect in infected cells using the Reed–Muench method.
(§3) The viral gene copy in the cell lysate is normalized with the transcript of GAPDH and presented. Viral titers were also detected by TCID50 assay. […] All experiments were independently repeated thrice.

Test [5] has as its system EV-A71. Put plainly: Multi-cycle virus growth assay in RD cells (TCID50). The class given is cell-based, Human enterovirus A71. The conditions noted are these: 10 µM, MOI 0.01, entire time-course. The text has this:
RD cells were infected with EV‐A71 at an MOI of 0.01. Viral titers in cell culture supernatants were quantified by TCID50 assay at indicated time points. […] RD cells were infected with EV‐A71 at an MOI of 1. […] At 12 hpi, the cells were lysed for detecting mRNA expression levels of proinflammatory cytokines and chemokines. IL-6, interleukin 6; IL-8, interleukin 8; TNF-α, tumor necrosis factor-α.

Test [6] concerns HRV-A. Put plainly: Antiviral activity against HRV-A in MRC-5 cells (RT-qPCR, TCID50). The class given is cell-based, human rhinovirus A. The conditions noted are these: 10 µM, 0.1 MOI, 24 h. The method, then: as §1, §2, §3
Test [7] concerns EV-A71. Put plainly: Virus attachment/entry assay in RD cells. The class given is cell-based, Human enterovirus A71. The conditions noted are these: 10 µM, MOI 5. The protocol: After 2 hpi, the infectious inoculum was removed, and cell lysates were collected. The intracellular viral RNA load was then determined using RT-qPCR analysis. […] The cell lysates were then collected to detect the intracellular viral gene copy by RT-qPCR analysis.
Fig. S5. […] (A) EV-A71 inactivation assay. […] (B) EV-A71 attachment assay. […] After 2 hpi, the infectious inoculum was removed and cells were washed again. The intracellular viral RNA load was then determined using RT-qPCR analysis. (C) EV-A71 entry assay.

The test system of test [8] is EV-A71. Put plainly: Flow cytometry of VP1-positive EV-A71-infected RD cells. The class given is cell-based, Human enterovirus A71. The conditions noted are these: 10 μM, MOI 2, 6 and 9 hpi. The protocol: Flow cytometry analysis was performed according to the standard protocol as described previously ([28]). In brief, the infected or mock-infected RD cells were dissociated with 10 mM EDTA and then fixed with 4% paraformaldehyde for 30 min. After permeabilization, the cells were incubated with rabbit anti‐VP1 antibody (GeneTex, GTX132339), followed by labeling with FITC-conjugated goat anti-rabbit IgG (Beyotime, P0176). Flow cytometry analysis was performed using a BD Fortessa flow cytometer (BD Biosciences), and the data were analyzed using FlowJo v.10 (Tree Star, USA).
Fig. S4. […] Then the infected- and mock-infected RD cells were fixed, labeled, and applied to flow cytometry to evaluate the percentage of VP1-positive cells at 0, 3, 6 and 9 hpi. […] Mean and SD of three independent experiments are presented (B and C). *p < 0.05; **p < 0.01.
(Flow cytometry measures light scatter and fluorescence of single cells or particles in a stream.)

Test [9] has as its system CVA10. The test is described as follows: Antiviral activity against CVA10 in RD cells (RT-qPCR, TCID50). The conditions noted are these: 10 µM, 0.1 MOI, 24 h. The format is cell-based, coxsackievirus A10. The method, then:
as §1, §2, §3

Turning to `Cc1ccc(Nc2nccc(N(C)c3ccc4c(C)n(C)nc4c3)n2)cc1S(N)(=O)=O` [Pazopanib], the “Akt phosphorylation in mock-infected cells” value in [1] (10 µM pretreatment) is “significantly attenuated Akt phosphorylation”. In test [1] (10 µM, MOI 1, 1 hpi), the “EV-A71-stimulated Akt phosphorylation” value was “inhibited”. In [2], the concentration for half-maximal inhibition (IC50) (usually the concentration that inhibits the measured activity by half) is 0.01 µM. Also, the EC50 in [3] was found to be 0.89 ± 0.02 µM. Besides, the “decrease in viral load and viral titer” value in [4] is on record as “over 2 logs”. Besides, the “decrease of viral titers in the cell supernatant vs DMSO” value in test [5] is given as “over 4 logs”. Moreover, in test [6], the “HRV-A replication (viral loads in cell lysate and supernatant)” value is “slight but significant inhibition”. Besides, in test [7], the “effect on viral attachment/entry (EV-A71 mRNA levels in cell lysates)” value is listed as “did not affect the viral attachment/entry stage”. The “percentage of EV-A71-infected RD cells” value in [8] is listed as “markedly decreased”. In addition, the “viral load and viral titer of CVA10 in cell lysates and supernatants” value in [9] is listed as “significantly reduced”.

These data come from paper PMC11542593, “Vascular endothelial growth factor receptor 2 as a potential host target for the inhibition of enterovirus replication” (Journal of Virology, 2024).
